Results on 2 molecules are retold here after patent publication US10913772B2, “Peptide for preventing or treating inflammatory diseases and use thereof” (KINE SCIENCES Co., Ltd., priority 2016, dated 2021).

Data set [1] deals with collagen-induced arthritis (CIA) mouse model. The experiment in a line: Arthritis progression index in collagen-induced arthritis mouse model. In kind it is in vivo, mouse (DBA/1J). On the set-up: key: 0-4 per leg, summed over four legs (0-16), mean of two observers. To be noted: Table 3, methotrexate 1 mg/kg. On the procedure: In Example 2, using a collagen-induced arthritis mouse model in the following document, a therapeutic effect of a RGD dimer for a representative inflammatory disease, rheumatoid arthritis was confirmed (Nat Protoc. 2007; 2(5):1269-75.).
A collagen-induced arthritis (CIA) mouse model was prepared as follows, as an autoimmune disease-based arthritis model with characteristics similar to human rheumatoid arthritis.
First, a bovine type II collagen (Chondrex Corporation, USA) and a Freund's complete adjuvant (Chondrex Corporation, USA) were mixed at a ratio of 1:1 and emulsified, and then 50 μl of the emulsified collagen solution was injected intradermally into the tail of a 6-week-old DBA/1J mouse to induce primary immunization. At two weeks after the primary immunization, the bovine type II collagen and the Freund's complete adjuvant were mixed at a ratio of 1:1 and emulsified, and then 50 μl of the emulsified collagen solution was injected intradermally into the tail of the mouse again to induce secondary immunization (boosting).
After the secondary immunization, from the next day, the peptide of the present invention ([…] (1 μmole)) was administered intraperitoneally three times a week and a PBS-treated group was used as a control (Vehicle control). The preparation process of the collagen-induced arthritis mouse model and the administration time of the peptide were schematically illustrated in FIG. 1.
In order to investigate the development of arthritis progression according to the peptide treatment of the present invention, the deepening degree of arthritis with time was measured by evaluating an arthritis progression index. Two observers who were unaware of the specific experimental conditions evaluated progression of arthritis three times a week. In this case, the arthritis progression index was evaluated by 0 to 4 scores per leg according to an arthritis progression evaluation standard by Rossoliniec and the like in Table 1 below to be represented by a total of 0 to 16 scores (a sum of four legs), and thereafter, two observers calculated an average value of the evaluated results to digitize the severity of arthritis.
In order to confirm the efficacy for each treatment concentration of the peptide according to the present invention, by using the same method as Example 2-2, an arthritis therapeutic effect according to the peptide treatment at various concentrations (0.1 μmole, 1 μmole, and 10 μmole) was evaluated by the arthritis progression index.
Methotrexate (MTX), one of drugs which are used as arthritis therapeutic agents in a current clinical practice, had excellent anti-inflammatory and arthritis therapeutic effects as an immunodepressant, but may have side effects such as toxicity to normal cells, oral ulcer, alopecia, interstitial pneumonia, bone marrow suppression, and the like. As a result, the methotrexate is known as a drug that needs to pay close attention after medication with sufficient medication counseling. As a result, the arthritis therapeutic effect according to the peptide treatment at various concentrations was compared with that of the case of treating methotrexate (1 mg/kg).

The nature of data set [2]: Evaluation of toxicity: mortality and change in body weight of mouse. To be noted: for Body weight: i.p., individual mice. In kind it is in vivo. The method, then:
In Example 3, in order to confirm the toxicity of the peptide of the present invention, the RGD dimer was intraperitoneally administered to mouse at various concentrations (0.1 μmole, 1 μmole, and 10 μmole), and then the mortality and a change in body weight of each mouse were measured. On the other hand, as a control, a non-administration group (Normal) and a PBS-treated group (PBS) were used.

Values joined by “and” are separate entries in the source; they are usually repeats but may differ in a detail not shown here. Equal entries are not always repeated. No end group written: not given here.

Turning to `CN(Cc1cnc2nc(N)nc(N)c2n1)c1ccc(C(=O)N[C@@H](CCC(=O)O)C(=O)O)cc1` [MTX, methotrexate], the arthritis progression index was 0.8 in data set [1] (day 20); 0.8 in data set [1] (day 22); 1.0 in data set [1] (day 24); 1.2 in data set [1] (day 27); 1.4 in data set [1] (day 29); 1.8 in data set [1] (day 31). For the same molecule, the results for the arthritis progression index in data set [1] (day 34) and in data set [1] (day 36) were 1.8 and 3.2, respectively.

Take RDGRDG [RDG dimer, RDGRDG]: the “mortality of the mouse” value in data set [2] (0.1 μmole, 1 μmole or 10 μmole, intraperitoneally) is “not observed”. Besides, the Body weight in data set [2] (10 umole, day 17) is 23.74 g and 20.75 g and 18.48 g; in data set [2] (10 umole, day 21), 23.8 g and 21.9 g and 20.5 g; in data set [2] (10 umole, day 24), 24.2 g and 22 g and 20.1 g; in data set [2] (10 umole, day 27), 23.8 g and 21.6 g and 20.5 g; in data set [2] (10 umole, day 31), 23.9 g and 22 g; in data set [2] (10 umole, day 34), 24.8 g and 22.3 g. For the same molecule, the Body weight in data set [2] (first group printed 1 umole, day 17) was 21.65 g and 24.51 g and 18.25 g and 21.88 g and 22.3 g and 21.96 g and 18.84 g; in data set [2] (first group printed 1 umole, day 21), 21.8 g and 24.5 g and 18.4 g and 21.5 g and 22 g (2×) and 19.6 g; in data set [2] (first group printed 1 umole, day 24), 21.8 g and 24.9 g and 18.2 g and 22.4 g and 22.8 g and 21.3 g and 20.6 g; in data set [2] (first group printed 1 umole, day 27), 22.2 g and 25 g and 18.1 g and 22.7 g and 22.9 g and 21.3 g and 20.5 g; in data set [2] (first group printed 1 umole, day 31) it was 22.4 g and 25.3 g and 18.8 g and 22.3 g and 22.6 g and 21.2 g and 20.7 g; in data set [2] (first group printed 1 umole, day 34) it was 23.1 g (2×) and 26.1 g and 19 g and 23 g and 22.6 g and 21.8 g. Further, the Body weight in data set [2] (second group printed 1 umole, day 17) was 22.7 g (2×) and 21.3 g and 18.96 g and 20.63 g and 20.61 g and 21.07 g; in data set [2] (second group printed 1 umole, day 21), 22.3 g and 22.4 g and 19.6 g and 20.6 g and 21.1 g and 21.3 g and 22.6 g; in data set [2] (second group printed 1 umole, day 24), 23.9 g and 22.2 g and 20 g and 20.8 g and 21.4 g and 21.7 g and 23.2 g; in data set [2] (second group printed 1 umole, day 27), 24.4 g and 22.3 g and 20.1 g and 21.2 g and 21.3 g and 21.7 g and 23.3 g; in data set [2] (second group printed 1 umole, day 31), 22.6 g and 22.7 g and 20.2 g and 20.1 g and 21.3 g and 22.2 g and 23.4 g; in data set [2] (second group printed 1 umole, day 34), 23 g and 23.6 g and 20.5 g and 18.6 g and 20.6 g and 22.5 g and 24.2 g. The “difference in body weight from the control” value in data set [2] (all the concentrations (0.1, 1 and 10 μmole), intraperitoneally) is reported as “did not have a large difference”.
